Experimental data reported in ChEMBL document CHEMBL5385906, “Discovery of a Potent, Selective, and Orally Bioavailable Tool Compound for Probing the Role of Lysophosphatidic Acid Type 2 Receptor Antagonists in Fibrotic Disorders” (J Med Chem, 2023).

Tests used:
[1] = biological target: Lysophosphatidic acid receptor 2 (Homo sapiens, UniProt Q9HBW0)
Description: Antagonist activity at human LPA2 receptor expressed in CHO cells assessed as inhibition of LPA-induced calcium mobilization pretreated for 15 mins followed by LPA stimulation by FLIPR analysis

[2] = biological target: Lysophosphatidic acid receptor 1 (Homo sapiens, UniProt Q92633)
Description: Antagonist activity at human LPA1 receptor expressed in CHO cells assessed as inhibition of LPA-induced calcium mobilization pretreated for 15 mins followed by LPA stimulation by FLIPR analysis

[3] = biological target: Lysophosphatidic acid receptor 2 (Mus musculus, UniProt Q9JL06); test: Antagonist activity at mouse LPA2 receptor expressed in HeLa cells assessed as inhibition of LPA-induced calcium mobilization pretreated for 15 mins followed by LPA stimulation by FLIPR analysis; format: functional, cell-based; conditions: read-out: pIC50 (converted)
[4] = Apparent permeability across basolateral to apical side in human Caco-2 cells at 10 uM measured after 60 mins by LC-MS/MS analysis
[5] = Protein binding in mouse plasma assessed as fraction unbound at 0.5 uM measured after 5 hrs by LC-MS/MS analysis
in vitro [6] = conditions: C57BL/6J, mouse, liver microsomes
Description: Intrinsic clearance in C57BL/6J mouse liver microsomes at 0.5 uM in presence of NADPH regenerating system measured for 45 mins per mg protein by LC-MS/MS analysis

[7] = Efflux ratio of apparent permeability across apical to basolateral to basolateral to apical side in human Caco-2 cells at 10 uM measured after 60 mins by LC-MS/MS analysis
in vivo [8] = conditions: C57BL/6J, mouse, plasma, po, 30 mg/kg
in vivo [9] = conditions: C57BL/6J, mouse, po, 30 mg/kg
in vitro [10] = conditions: human, liver microsomes, CLH
Description: Intrinsic clearance in human liver microsomes at 0.5 uM in presence of NADPH regenerating system measured for 45 mins per mg protein by LC-MS/MS analysis

in vivo [11] = conditions: C57BL/6J, mouse, plasma, po, 30 mg/kg; remark: listed apart in the source
in vivo [12] = conditions: C57BL/6J, mouse, lung, po, 30 mg/kg
[13] = Half life in C57BL/6J mouse at 30 mg/kg, po and 2 mg/kg, iv by LC-MS/MS analysis; conditions: in vivo
in vivo [14] = conditions: C57BL/6J, mouse, lung, po, 30 mg/kg; remark: listed apart in the source
[15] = Protein binding in mouse lungs assessed as fraction unbound at 5 uM measured after 5 hrs by LC-MS/MS analysis
[16] = Protein binding in human plasma assessed as fraction unbound at 0.5 uM measured after 5 hrs by LC-MS/MS analysis
[17] = Oral absorption in C57BL/6J mouse at 30 mg/kg by LC-MS/MS analysis; conditions: in vivo
[18] = Apparent permeability across apical to basolateral side in human Caco-2 cells at 10 uM measured after 60 mins by LC-MS/MS analysis

Lysophosphatidic acid receptor 1, sequence (Q92633 whole entry): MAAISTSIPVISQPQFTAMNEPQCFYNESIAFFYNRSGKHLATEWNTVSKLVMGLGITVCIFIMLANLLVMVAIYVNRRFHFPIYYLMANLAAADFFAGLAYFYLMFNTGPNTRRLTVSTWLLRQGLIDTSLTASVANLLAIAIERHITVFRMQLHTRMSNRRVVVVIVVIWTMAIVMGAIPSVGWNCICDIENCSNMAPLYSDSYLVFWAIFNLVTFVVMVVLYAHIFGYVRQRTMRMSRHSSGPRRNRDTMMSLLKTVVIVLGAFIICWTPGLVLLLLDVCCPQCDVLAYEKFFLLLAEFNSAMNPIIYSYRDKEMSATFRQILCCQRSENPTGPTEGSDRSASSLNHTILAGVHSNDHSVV
Lysophosphatidic acid receptor 2 (Homo sapiens, UniProt Q9HBW0), sequence (Q9HBW0 whole entry): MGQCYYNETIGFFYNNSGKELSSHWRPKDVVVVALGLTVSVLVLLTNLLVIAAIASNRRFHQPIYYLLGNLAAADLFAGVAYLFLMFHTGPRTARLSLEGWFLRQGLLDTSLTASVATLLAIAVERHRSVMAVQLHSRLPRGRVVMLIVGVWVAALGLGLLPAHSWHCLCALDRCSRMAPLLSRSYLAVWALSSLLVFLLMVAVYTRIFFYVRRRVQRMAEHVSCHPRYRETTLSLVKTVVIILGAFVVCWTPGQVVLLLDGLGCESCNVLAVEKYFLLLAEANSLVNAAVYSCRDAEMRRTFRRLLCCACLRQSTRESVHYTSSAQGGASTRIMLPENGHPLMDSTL
Lysophosphatidic acid receptor 2 (Mus musculus, UniProt Q9JL06), sequence (Q9JL06 whole entry): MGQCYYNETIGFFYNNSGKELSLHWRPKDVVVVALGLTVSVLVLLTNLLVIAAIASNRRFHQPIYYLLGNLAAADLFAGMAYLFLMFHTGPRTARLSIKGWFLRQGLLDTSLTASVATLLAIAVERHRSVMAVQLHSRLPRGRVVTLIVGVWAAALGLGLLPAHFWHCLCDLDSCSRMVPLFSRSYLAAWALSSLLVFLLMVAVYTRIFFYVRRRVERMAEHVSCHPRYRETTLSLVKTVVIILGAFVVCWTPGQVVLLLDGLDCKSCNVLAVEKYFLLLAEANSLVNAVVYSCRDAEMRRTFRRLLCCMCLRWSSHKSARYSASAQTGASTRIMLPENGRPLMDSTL

## Cc1csc2c(N[C@@H](C)CN3CCN(S(=O)(=O)C(=O)c4ccc(Cl)c(Cl)c4)CC3)ncnc12
[1]
  IC50: 16.2 µM

## COC(=O)Nc1nc(C)c(S(=O)(=O)N2CCN(C[C@H](C)Nc3ncnc4c(-c5cccnc5)cccc34)CC2)s1
[2]
  IC50: > 5.01 µM
[3]
  IC50: 0.00257 µM

## COC(=O)Nc1nc(C)c(S(=O)(=O)N2CCN(C[C@H](C)Nc3ncnc4c(-c5cccc(CN(C)C)c5)cccc34)CC2)s1
[4]
  Papp B→A at 1 h, 10 µM: 106 nm/s
[2]
  IC50: > 50.1 µM
[1]
  IC50: 0.000331 µM
[5]
  fraction unbound at 5 h, 0.5 µM: 0.0124
In vitro [6]
  microsomal CLint at 0.75 h, 0.5 µM: 108 µL/min/mg
[7]
  efflux ratio at 1 h, 10 µM: 60
In vivo [8]
  AUC(0-t): 34.2 µg·h/mL
In vivo [9]
  bioavailability: 16%
In vitro [10]
  microsomal CLint at 0.75 h, 0.5 µM: 38 µL/min/mg
In vivo [11]
  Cmax: 12.1 µg/mL
In vivo [12]
  Cmax: 7.03 µg/mL
[13]
  half-life: 2.6 h
[3]
  IC50: 0.00479 µM
In vivo [14]
  AUC(0-t): 43.2 µg·h/mL
[15]
  fraction unbound at 5 h, 5 µM: 0.0177
[16]
  fraction unbound at 5 h, 0.5 µM: 0.0003
[17]
  Fa: 17%
[18]
  Papp A→B at 1 h, 10 µM: 1.8 nm/s

## COC(=O)Nc1nc(C)c(S(=O)(=O)N2CCN(C[C@H](C)Nc3ncnc4c(-c5ccc(CN6CCCC6)cc5)cccc34)CC2)s1
[3]
  IC50: 0.0174 µM

## Cc1csc2c(N[C@@H](C)CN3CCC(NS(=O)(=O)c4ccc(Cl)c(Cl)c4)CC3)ncnc12
[1]
  IC50: 6.61 µM

## CC[C@@H](CN1CCN(S(=O)(=O)c2ccc(Cl)c(Cl)c2)CC1)Nc1ncnc2c(C)csc12
[1]
  IC50: 6.17 µM

## CC(=O)Nc1ncc(S(=O)(=O)N2CCN(C[C@H](C)Nc3ncnc4c(C)csc34)CC2)s1
[1]
  IC50: 4.57 µM

## COC(=O)Nc1nc(C)c(S(=O)(=O)N2CCN(C[C@H](C)Nc3ncnc4c(-c5cccnc5C)cccc34)CC2)s1
[4]
  Papp B→A at 1 h, 10 µM: 112 nm/s
[2]
  IC50: > 50.1 µM
[1]
  IC50: 0.000447 µM
[5]
  fraction unbound at 5 h, 0.5 µM: 0.0616
In vitro [6]
  microsomal CLint at 0.75 h, 0.5 µM: 13 µL/min/mg
[7]
  efflux ratio at 1 h, 10 µM: 2.7
In vivo [8]
  AUC(0-t): 163 µg·h/mL
In vivo [9]
  bioavailability: 67%
In vitro [10]
  microsomal CLint at 0.75 h, 0.5 µM: 21 µL/min/mg
In vivo [11]
  Cmax: 81.2 µg/mL
In vivo [12]
  Cmax: 8.45 µg/mL
[13]
  half-life: 1.74 h
[3]
  IC50: 0.00646 µM
In vivo [14]
  AUC(0-t): 24.3 µg·h/mL
[15]
  fraction unbound at 5 h, 5 µM: 0.0531
[17]
  Fa: 76%
[18]
  Papp A→B at 1 h, 10 µM: 41.7 nm/s

## Cc1csc2c(N[C@@H](C)CN3CCN(S(=O)(=O)C4CCCCC4)CC3)ncnc12
[1]
  IC50: 25.1 µM

## Cc1csc2c(N[C@@H](C)CN3CCN(S(=O)(=O)c4ccc(F)c(Cl)c4)CC3)ncnc12
[1]
  IC50: 0.562 µM

## Cc1ccc(S(=O)(=O)N2CCN(C[C@H](C)Nc3ncnc4c(C)csc34)CC2)cc1C
[1]
  IC50: 2.82 µM

## Cc1csc2c(N[C@@H](C)CN3CCN(S(=O)(=O)c4ccc(Cl)cc4Cl)CC3)ncnc12
[1]
  IC50: 3.63 µM

## Cc1csc2c(N[C@@H](C)CN3CCN(S(=O)(=O)c4ccccc4)CC3)ncnc12
[1]
  IC50: 11.2 µM

## Cc1cc2ncnc(NC(C)CN3CCN(S(=O)(=O)c4ccc(Cl)c(Cl)c4)CC3)c2s1 (racemic)
[2]
  IC50: 10.5 µM
[1]
  IC50: 13.5 µM

## CC(CN1CCN(S(=O)(=O)c2ccc(Cl)c(Cl)c2)CC1)Nc1ncnc2c1ncn2C (racemic)
[2]
  IC50: 20.4 µM
[1]
  IC50: 19.1 µM

## CC(CN1CCN(S(=O)(=O)c2ccc(Cl)c(Cl)c2)CC1)Nc1ncnc2c(-c3ccccc3)csc12 (racemic)
[2]
  IC50: > 50.1 µM
[1]
  IC50: 3.47 µM
In vitro [6]
  microsomal CLint at 0.75 h, 0.5 µM: 270 µL/min/mg
In vitro [10]
  microsomal CLint at 0.75 h, 0.5 µM: 228 µL/min/mg

## CC(CN1CCN(S(=O)(=O)c2ccc(Cl)c(Cl)c2)CC1)Nc1ccncn1 (racemic)
[2]
  IC50: 21.9 µM

## Cc1csc2c(NC(C)CN3CCN(S(=O)(=O)c4ccc(Cl)c(Cl)c4)CC3)cccc12 (racemic)
[1]
  IC50: > 50.1 µM

## Cc1csc2c(NCC(C)N3CCN(S(=O)(=O)c4ccc(Cl)c(Cl)c4)CC3)ncnc12 (stereo in doubt; 6a)
[1]
  IC50: 14.5 µM

## Cc1csc2c(NCC(C)N3CCN(S(=O)(=O)c4ccc(Cl)c(Cl)c4)CC3)ncnc12 (stereo in doubt; 6b)
[1]
  IC50: 6.17 µM

## Cc1cccc2c(NC(C)CN3CCN(S(=O)(=O)c4ccc(Cl)c(Cl)c4)CC3)ncnc12 (stereo in doubt; 42a)
[2]
  IC50: > 50.1 µM
[1]
  IC50: > 50.1 µM

## Cc1cccc2c(NC(C)CN3CCN(S(=O)(=O)c4ccc(Cl)c(Cl)c4)CC3)ncnc12 (stereo in doubt; 42b)
[2]
  IC50: 12.6 µM
[1]
  IC50: 4.17 µM
In vitro [6]
  microsomal CLint at 0.75 h, 0.5 µM: 698 µL/min/mg
In vitro [10]
  microsomal CLint at 0.75 h, 0.5 µM: 789 µL/min/mg
